This is an account of results in US9468648B2, “Treatment including prebiotic composition for use with probiotics” (MASTER SUPPLEMENTS, INC., priority 2010, dated 2016).

Type in all cases: cell-based
In assay [1] the test system is Lactobacillus acidophilus NCFM (LA-1). Put plainly: Growth (turbidity) and lactic acid producing activity in MRS broth, L. acidophilus NCFM. As to conditions: for pH: 0.1% in MRS (Polysorbate 80: 1.0 g/l). Here is the method:
(§1) At specified time intervals, a 30 ml sample from each flask was aseptically transferred into a HACH […] Turbidimeter sample cell. The turbidity of each sample was read and the results were reported in NTU's. The same 30 ml sample used for the turbidity reading was transferred into a 250 ml glass beaker, and the pH was recorded. The sample was titrated using 0.1 N NaOH to an endpoint of pH 6.8, and the quantity of NaOH used was recorded. The % Lactic Acid was calculated using the following formula: % Lactic Acid=((mls of 0.1N NaOH)×(0.1N)×(90 gm/mole)×(1 L/1000 ml))×100 mls of sample % Lactic Acid=(mls of 0.1N NaOH)×(0.9) (Results reported at 12 hours and 23 hours like: 12/23 in Table I below)

For assay [2], the system named is Bifidobacterium lactis Bl-04 (BL-34). The assay is described as follows: Growth (turbidity) and lactic acid producing activity in MRS broth, B. lactis Bl-04. As to conditions: 0.1% in MRS (Polysorbate 80: 1.0 g/l). As to the method:
as §1, with “Each flask was tempered to 37° C. and aseptically inoculated with 0.14 gm of the individual probiotic strains (in Examples 5 to 10 below) to be tested. At” for “At”, “II” for “I”

Assay [3] concerns Lactobacillus paracasei Lpc-37 (F-19). The assay is described as follows: Growth (turbidity) and lactic acid producing activity in MRS broth, L. paracasei Lpc-37. As to the method: as §1, with “Each flask was tempered to 37° C. and aseptically inoculated with 0.14 gm of the individual probiotic strains (in Examples 5 to 10 below) to be tested. At” for “At”, “III” for “I”
The test system of assay [4] is Lactobacillus rhamnosus-Lr-32 (LR-44). Put plainly: Growth (turbidity) and lactic acid producing activity in MRS broth, L. rhamnosus Lr-32. As to conditions: for pH: 0.1% in MRS (Polysorbate 80: 1.0 g/l). Here is the method: as §1, with “Each flask was tempered to 37° C. and aseptically inoculated with 0.14 gm of the individual probiotic strains (in Examples 5 to 10 below) to be tested. At” for “At”, “IV” for “I”

In assay [5] the test system is Lactobacillus salivarius-Ls-33 (LS-30). The assay is described as follows: Growth (turbidity) and lactic acid producing activity in MRS broth, L. salivarius Ls-33. As to conditions: for pH: 0.1% in MRS (Polysorbate 80: 1.0 g/l). As to the method:
as §1, with “Each flask was tempered to 37° C. and aseptically inoculated with 0.14 gm of the individual probiotic strains (in Examples 5 to 10 below) to be tested. At” for “At”, “V” for “I”

In assay [6] the test system is THERALAC® Lot #32310A probiotic strains. The assay is described as follows: Growth of the commercial probiotic […] in MRS broth. As to conditions: for pH: 0.1% in MRS (Polysorbate 80: 1.0 g/l). As to the method: MRS broth was prepared with (for controls) and without (for tests) polysorbate 80 and filled into 1 liter screw cap flasks at 500 ml each and autoclaved at 121° C. for 30 minutes. Various lecithin and/or oleic acid additives, or nothing (negative control), was added to the tests flasks prior to autoclaving. The flasks were then tempered to 37° C. in a water bath and inoculated at 0.1% with […]® Lot #32310A, a commercial probiotic product (Master Supplements, Inc., Victoria, Minn.). Capsules of […]® were opened and the contents mixed aseptically to serve as the inoculum source. At an inoculation rate of 0.1%, approximately 80 million CFU was added per ml of MRS media. […]® contains (formulation strength) the following probiotic strains at the approximate CFU values listed per gram: Turbidity, pH and titrations (made with 0.1 N NaOH and reported as % lactic acid) were made at various times up to 23 hours. The results are presented below in Table VI for the 12 and 23-hour analyses.

Where [7] appears, read: 0.1% in MRS (Polysorbate 80: 1.0 g/l), 12 hours.

Consider polysorbate 80, for which the pH in assay [1] (12 hours) is recorded as 4.2; in assay [1] (23 hours) it was 4.1; in assay [2] (12 hours) it was 4.8; in assay [2] (23 hours), 4.5; in assay [3] (setting [7]), 4.2; in assay [3] (0.1% in MRS (Polysorbate 80: 1.0 g/l), 23 hours) it was 3.9. Moreover, the pH in assay [4] (12 hours) is given as 4.0; in assay [4] (23 hours) it was 3.7; in assay [5] (12 hours), 3.8; in assay [5] (23 hours), 3.7; in assay [6] (12 hours), 3.9; in assay [6] (23 hours), 3.7. Besides, the “Lactic Acid %” value in assay [2] (12 hours) is given as 0.57%; in assay [2] (23 hours), 0.84%; in assay [3] (setting [7]) it was 0.99%.
On to `CCCCCCCC/C=C\CCCCCCCC(=O)O` [Oleic Acid, oleic acid], for which the “effectiveness as polysorbate 80 replacement (growth and activity)” value is on record as “somewhat effective as a polysorbate 80 replacement” in assay [1] (0.1% inclusion rate); “not as effective a replacement for polysorbate 80 as sunflower lecithin” in assay [3] (0.1% inclusion rate); “not as good a replacement for polysorbate 80 as sunflower lecithin” in assay [4] (0.1% inclusion rate); “not as good a replacement” in assay [5] (0.1% inclusion rate); “acceptable replacement value for polysorbate 80” in assay [6] (0.1% inclusion rate).
